# Measured values from patent EP4585599A1, “NITROGEN-CONTAINING FUSED RING COMPOUND, INTERMEDIATE THEREOF, PREPARATION METHOD THEREFOR AND USE THEREOF” (Hangzhou Synrx Therapeutics Biomedical Technology Co., Ltd., priority 2022, dated 2024).
# Where two headings read alike, the source gives them in different places.
# What was measured:
# cells = conditions: Homo sapiens, DLD-1, 240 h
# [1] = molecular target: T1, helicase domain of the Pol θ protein (Homo sapiens, UniProt O75417); assay: Biochemical Activity Assay (ADP Glo Assay) of Pol θ inhibitor, ATPase activity
# T1 construct: The helicase domain of the Pol θ protein was purified from insect protein expression system; made in house; host or cells: insect protein expression system
# [2] = read-out: Cell viability assay IC50 (nM), CTG assay, CellTiter Glo, read on Day 10, cell line not given
# [3] = ADP-Glo assay, ATPase activity of Pol θ helicase domain, ssDNA substrate, read-out: Biochemical assay IC50
# [4] = read-out: Cell viability assay IC50 (nM)
# T1 sequence (O75417 102-554 limits assumed): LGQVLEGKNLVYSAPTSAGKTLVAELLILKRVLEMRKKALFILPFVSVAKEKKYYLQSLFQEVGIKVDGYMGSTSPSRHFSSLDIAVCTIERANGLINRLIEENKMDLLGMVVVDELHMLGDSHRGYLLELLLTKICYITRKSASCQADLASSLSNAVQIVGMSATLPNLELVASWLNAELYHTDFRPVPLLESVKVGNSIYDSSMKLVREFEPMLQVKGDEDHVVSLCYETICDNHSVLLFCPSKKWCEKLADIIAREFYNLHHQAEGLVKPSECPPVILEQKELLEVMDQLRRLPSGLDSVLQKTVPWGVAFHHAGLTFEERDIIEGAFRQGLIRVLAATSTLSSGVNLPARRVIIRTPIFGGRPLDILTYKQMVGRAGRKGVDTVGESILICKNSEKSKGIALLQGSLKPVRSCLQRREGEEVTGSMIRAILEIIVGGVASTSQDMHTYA
Compound,IC50 (cells; [2]),"IC50 [1, 3]",IC50 (cells; [4]),IC50 ([1]; Biochemical assay IC50 (nM)),"IC50 ([1]; Biochemical assay IC50 (nM), ADP-Glo assay, ATPase activity of Pol θ helicase domain, ssDNA substrate)"
"[2H]C([2H])([2H])c1cnn(C)c1-c1cc2sc(NC(=O)c3cnc(C)cc3-c3cc(Cl)ncc3OC)nc2cn1 [Example 176, 2'-chloro-5'-methoxy-6-methyl-N-(6-(1-methyl-4-(methyl-d3)-1H-pyrazol-5-yl)thiazolo [4,5-c]pyridin-2-yl)-[4,4'-bipyridine]-3-carboxamide]",4.29 nM,4.64 nM,,,
"COc1cnc(Cl)cc1-c1cc(C)ncc1C(=O)Nc1nc2nc(OC)c(-c3c(C)cnn3C)cc2s1 [Example 177, 2'-chloro-N-(6-(1,4-dimethyl-1H-parazol-5-yl)-5-methoxythiazolo[4,5-b]pyridin-2-yl)-5' -methoxy-6-methyl-[4,4'-bipyridine]-3-carboxamide]",,,121 nM,13.6 nM,
"COc1cnc(Cl)cc1-c1cc(C)ncc1C(=O)Nc1nc2[nH]c(=O)c(-c3c(C)cnn3C)cc2s1 [Example 178, 2'-chloro-N-(6-(1,4-dimethyl-1H-parazol-5-yl)-5-oxo-4,5-dihydrothiazolo[4,5-b]pyridin-2-yl)-5'-methoxvy-6-methyl-[4,4'-bipyridine]-3-carboxamide]",,,35.5 nM,1.63 nM,
"COc1cnc(Cl)cc1-c1cc(C)ncc1C(=O)Nc1nc2c(=O)[nH]c(-c3c(C)cnn3C)cc2s1 [Example 179, 2'-chloro-N-(6-(1,4-dimethyl-1H-parazol-5-yl)-4-oxo-4,5-dihydrothiazolo[4,5-c]pyridin-2-yl)-5'-methoxy-6-methyl-[4,4'-bipyridine]-3-carboxamide]",,,562 nM,2.43 nM,
"COc1cnc(Cl)cc1-c1cc(C)ncc1C(=O)Nc1nc2ncc(C3COCCO3)cc2s1 (stereo not shown) [Example 182, N-(6-(1,4-dioxan-2-yl)thiazolo[4,5-b]pyridin-2-yl)-2'-chloro-5'-methoxy-6-methyl-[4,4'-bipyridine]-3-carboxamide]",39.8 nM,2.08 nM,,,
"COc1cnc(Cl)cc1-c1cc(C)ncc1C(=O)Nc1nc2nnc(C3=CCC(O)CC3)cc2s1 (stereo not shown) [Example 183, 2'-chloro-N-(3-(4-hydroxycyclohexyl-1-en-1-yl)thiazolo[4,5-c]pyridazin-6-yl)-5'-methox y-6-methyl-[4,4'-bipyridine]-3-carboxamide]",,,1260 nM,3.41 nM,
COc1cnc(Cl)cc1-c1cc(C)ncc1C(=O)Nc1nc2ncc(C3=CCC4(CC3)CN(C(C)=O)C4)cc2s1 [Example 184],482 nM,15.2 nM,,,
COc1cnc(Cl)cc1-c1cc(C)ncc1C(=O)Nc1nc2cnc(C3=CCC4(CC3)CN(C(C)=O)C4)cc2s1 [Example 185],35.9 nM,8.94 nM,,,
CCP(=O)(CC)c1ccc(-c2cnc3nc(NC(=O)c4cnc(C)cc4-c4cc(Cl)ncc4OC)sc3c2)cc1 [Example 186],,,1520 nM,5.58 nM,
CCP(=O)(CC)c1ccc(-c2ccc3nc(NC(=O)c4cnc(C)cc4-c4cc(Cl)ncc4OC)sc3c2)cc1 [Example 187],,,271 nM,8.75 nM,
COc1cnc(Cl)cc1-c1cc(C)ncc1C(=O)Nc1nc2cnc(-c3ccc(S(F)(F)(F)(F)F)cc3)cc2s1 [Example 188],< 1.52 nM,36.7 nM,,,
CCP(=O)(CC)c1ccc(-c2cc3sc(NC(=O)c4cnc(C)cc4-c4cc(Cl)ncc4OC)nc3cc2F)cc1 [Example 189],12.9 nM,8.06 nM,,,
COc1cnc(Cl)cc1-c1cc(C)ncc1C(=O)Nc1nc2cc(F)c(-c3ccc(P4(=O)CCCC4)cc3)cc2s1 [Example 190],3.28 nM,5.08 nM,,,
"COc1cnc(Cl)cc1-c1cc(C)ncc1C(=O)Nc1nc2c(s1)CN(C(=O)c1ccccc1)CC2 [Example 191, N-(5-benzoyl-4.5.6,7-tetrahydrothiazolo[5.4]pyridin-2-yl)-2'-chloro-5'-methoxy-6-methyl-[4,4'-bipyridine]-3-carboxamide]",,,521 nM,,29.3 nM
